Values joined by “and” are separate entries in the source; they are usually repeats but may differ in a detail not shown here. Equal values may be shown once. Toxic doses and inconclusive results are not listed. The calls were made as follows: active = survival T/C of 150% or more; inactive = T/C below 125% in these data.
System: P388 leukemia ip, CD2F1 mice, survival T/C
Test: NCI In Vivo Anticancer Drug Screen. Data for tumor model P388 Leukemia (intraperitoneal) in CD2F1 (CDF1) mice
Conditions: endpoint: median survival time, higher = longer survival
Procedure, shortened: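 Mice carrying the transplanted tumor received test compound or vehicle. Survival was recorded in each group, and the value is the treated-group measurement divided by that of the vehicle-treated control group.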

[1] = dose: 25.0 mg/kg/injection, schedule: Q01DX009 (ip), vehicle: saline with Tween-80
[2] = dose: 50.0 mg/kg/injection, schedule: Q01DX009 (ip), vehicle: saline with Tween-80
[3] = dose: 100.0 mg/kg/injection, schedule: Q01DX009 (ip), vehicle: saline with Tween-80
[4] = dose: 120.0 mg/kg/injection, schedule: Q01DX005 (ip), vehicle: saline with Tween-80
[5] = dose: 240.0 mg/kg/injection, schedule: Q01DX005 (ip), vehicle: saline with Tween-80
[6] = dose: 50.0 mg/kg/injection, schedule: Q01DX005 (ip), vehicle: saline with Tween-80
[7] = dose: 100.0 mg/kg/injection, schedule: Q01DX005 (ip), vehicle: saline with Tween-80
[8] = dose: 200.0 mg/kg/injection, schedule: Q01DX005 (ip), vehicle: saline with Tween-80
[9] = dose: 60.0 mg/kg/injection, schedule: Q01DX005 (ip), vehicle: Klucel (hydroxypropylcellulose) (HPC)
[10] = dose: 120.0 mg/kg/injection, schedule: Q01DX005 (ip), vehicle: Klucel (hydroxypropylcellulose) (HPC)
[11] = dose: 25.0 mg/kg/injection, schedule: Q04DX003 (ip), vehicle: saline
[12] = dose: 50.0 mg/kg/injection, schedule: Q04DX003 (ip), vehicle: saline
[13] = dose: 100.0 mg/kg/injection, schedule: Q04DX003 (ip), vehicle: saline
[14] = dose: 60.0 mg/kg/injection, schedule: Q01DX005 (ip), vehicle: saline with Tween-80
[15] = dose: 25.0 mg/kg/injection, schedule: Q01DX009 (ip), vehicle: saline
[16] = dose: 50.0 mg/kg/injection, schedule: Q01DX009 (ip), vehicle: saline
[17] = dose: 100.0 mg/kg/injection, schedule: Q01DX009 (ip), vehicle: saline
[18] = dose: 200.0 mg/kg/injection, schedule: Q01DX009 (ip), vehicle: saline
[19] = dose: 100.0 mg/kg/injection, schedule: Q01DX001 (ip), vehicle: Klucel (hydroxypropylcellulose) (HPC)
[20] = dose: 200.0 mg/kg/injection, schedule: Q01DX001 (ip), vehicle: Klucel (hydroxypropylcellulose) (HPC)
[21] = dose: 400.0 mg/kg/injection, schedule: Q01DX001 (ip), vehicle: Klucel (hydroxypropylcellulose) (HPC)
[22] = dose: 12.5 mg/kg/injection, schedule: Q01DX009 (ip), vehicle: saline with Tween-80
[23] = dose: 100.0 mg/kg/injection, schedule: Q04DX003 (ip), vehicle: saline with Tween-80
[24] = dose: 200.0 mg/kg/injection, schedule: Q04DX003 (ip), vehicle: saline with Tween-80
[25] = dose: 400.0 mg/kg/injection, schedule: Q04DX003 (ip), vehicle: saline with Tween-80

Measured: T/C

O=C(O)CC(C(=O)O)S(=O)CP(=O)(O)O (stereo unspecified)
inactive: dose: 50.0 mg/kg/injection, schedule: Q01DX005 (ip), vehicle: saline 95 % of control | dose: 100.0 mg/kg/injection, schedule: Q01DX005 (ip), vehicle: saline 103 % of control | dose: 200.0 mg/kg/injection, schedule: Q01DX005 (ip), vehicle: saline 110 % of control

CCn1c2c(c3ccccc31)CCSC2(C)CCN(C)C (stereo unspecified)
inactive: [1] 105 % of control | [2] 96 % of control | [3] 117 % of control

COc1cc(C(=O)CC(=O)Cc2ccc3ccccc3n2)cc(OC)c1OC
inactive: dose: 0.93 mg/kg/injection, schedule: Q01DX005 (ip), vehicle: saline with Tween-80 102 % of control | dose: 1.88 mg/kg/injection, schedule: Q01DX005 (ip), vehicle: saline with Tween-80 103 % of control | dose: 3.75 mg/kg/injection, schedule: Q01DX005 (ip), vehicle: saline with Tween-80 98 % of control | [4] 90 % of control | [5] 97 % of control

CCCCCCCCCCCCCCCCCN1CCS(=O)(=O)CC1
inactive: dose: 50.0 mg/kg/injection, schedule: Q01DX009 (ip), vehicle: Klucel (hydroxypropylcellulose) (HPC) 100 % of control | dose: 100.0 mg/kg/injection, schedule: Q01DX009 (ip), vehicle: Klucel (hydroxypropylcellulose) (HPC) 94 % of control | dose: 200.0 mg/kg/injection, schedule: Q01DX009 (ip), vehicle: Klucel (hydroxypropylcellulose) (HPC) 88 % of control

CNC(=S)SSC(=S)NCCNC(=S)SSC(=S)NC
inactive: [6] 99 % of control | [7] 106 % of control | [8] 101 % of control

O=S(=O)(CS(=O)(=O)c1ccccc1Br)c1ccccc1Br
inactive: dose: 30.0 mg/kg/injection, schedule: Q01DX005 (ip), vehicle: Klucel (hydroxypropylcellulose) (HPC) 100 % of control | [9] 100 % of control | [10] 100 % of control | dose: 240.0 mg/kg/injection, schedule: Q01DX005 (ip), vehicle: Klucel (hydroxypropylcellulose) (HPC) 100 % of control

Cc1ccccc1C(=O)Nc1ccccc1-c1ccccc1N
inactive: [11] 95 % of control | [12] 99 % of control | [13] 90 % of control and 91 % of control

Oc1cc2c(cc1C(c1ccc3c(c1)OCO3)N1CCCCC1)OCO2 (stereo unspecified)
inactive: [14] 119 % of control | [4] 118 % of control | [5] 120 % of control

CCOC(=O)N1CCN(CCCCCOc2ccc(CC(C)(C)C)cc2Cl)CC1
inactive: [1] 110 % of control | [15] 93 % of control | [2] 106 % of control | [16] 100 % of control | [3] 111 % of control | [17] 113 % of control | dose: 200.0 mg/kg/injection, schedule: Q01DX009 (ip), vehicle: saline with Tween-80 117 % of control | [18] 92 % of control

CCC[CH2][Sn]([CH2]CCC)([NH]c1ncnc2[nH]cnc12)[NH]c1ncnc2[nH]cnc12
inactive: dose: 1.56 mg/kg/injection, schedule: Q01DX005 (ip), vehicle: Klucel (hydroxypropylcellulose) (HPC) 98 % of control | dose: 3.12 mg/kg/injection, schedule: Q01DX005 (ip), vehicle: Klucel (hydroxypropylcellulose) (HPC) 110 % of control | dose: 6.25 mg/kg/injection, schedule: Q01DX005 (ip), vehicle: Klucel (hydroxypropylcellulose) (HPC) 121 % of control

Cc1[nH]c2cc3c(cc2c(=O)c1Cc1c(C)[nH]c2cc4c(cc2c1=O)CCCC4)CCCC3
inactive: [19] 87 % of control | [20] 88 % of control | [21] 87 % of control

Cc1ccc(C(=O)N=[N+]=[N-])o1
inactive: [22] 98 % of control | [1] 100 % of control | [2] 100 % of control

CN=NNc1ccc(C#N)cc1
inactive: [19] 98 % of control | [20] 98 % of control | [21] 95 % of control

COc1ccc2c(Br)c(NC(C)=O)ccc2c1Br
inactive: [11] 100 % of control | [12] 96 % of control | [13] 98 % of control and 96 % of control | dose: 400.0 mg/kg/injection, schedule: Q04DX003 (ip), vehicle: saline 95 % of control

NNC(=O)Cc1cccc2ccc(Cl)cc12
inactive: [9] 92 % of control | [10] 88 % of control

COC(=O)C(OC)C(O)C(OC)OC (stereo unspecified)
inactive: [6] 100 % of control | [7] 101 % of control | [8] 104 % of control

COc1ccc(/C=N\N2CN(C(CC(N)=O)C(=O)O)C(O)(CCl)N=C2N)cc1OC (stereo unspecified)
inactive: dose: 60.0 mg/kg/injection, schedule: Q01DX005 (ip), vehicle: saline 95 % of control | dose: 120.0 mg/kg/injection, schedule: Q01DX005 (ip), vehicle: saline 98 % of control | dose: 240.0 mg/kg/injection, schedule: Q01DX005 (ip), vehicle: saline 98 % of control

CNc1ccccc1C(=O)N/N=C/C=C/c1ccccc1
inactive: [22] 102 % of control | [1] 105 % of control | [2] 104 % of control | [3] 118 % of control

CC(C)(C)C(=O)Oc1ccc[nH]c1=O
inactive: [15] 100 % of control and 110 % of control | [16] 106 % of control and 116 % of control | [17] 100 % of control and 116 % of control | [18] 121 % of control and 94 % of control | dose: 400.0 mg/kg/injection, schedule: Q01DX009 (ip), vehicle: saline 106 % of control and 109 % of control

Cc1ccc(OP(=O)(Oc2ccc(C)cc2)Oc2ccc(C)cc2)cc1.Cc1ccc(OP(=O)(Oc2ccc(C)cc2)Oc2ccc(C)cc2)cc1.Cc1ccc(OP(=O)(Oc2ccc(C)cc2)Oc2ccc(C)cc2)cc1.Cc1ccc(OP(=O)(Oc2ccc(C)cc2)Oc2ccc(C)cc2)cc1.[Fe+2].[O-][Cl+3]([O-])([O-])O
inactive: dose: 50.0 mg/kg/injection, schedule: Q01DX001 (ip), vehicle: Klucel (hydroxypropylcellulose) (HPC) 99 % of control | [19] 96 % of control | [20] 99 % of control

NC(=S)N/N=C\C=N\Nc1ccccc1
inactive: dose: 100.0 mg/kg/injection, schedule: Q04DX003 (ip), vehicle: Klucel (hydroxypropylcellulose) (HPC) 100 % of control | dose: 200.0 mg/kg/injection, schedule: Q04DX003 (ip), vehicle: Klucel (hydroxypropylcellulose) (HPC) 100 % of control

CC(C)(C)NC(=O)N1C2C3CCC(C)(OC3(C)C)C21 (stereo unspecified)
inactive: [6] 98 % of control | [7] 99 % of control

Oc1ccc2ccccc2c1N=Nc1ccc(F)cc1
inactive: [23] 100 % of control | [24] 100 % of control | [25] 104 % of control

CCn1c2ccc(N=C=O)cc2c2c3[nH]c(=O)c4cccn4c3ccc21
inactive: [6] 95 % of control | [7] 88 % of control | [8] 86 % of control

OC1(O)CCC1(O)OCCBr (stereo unspecified)
inactive: [14] 92 % of control | [4] 108 % of control

OC1CCC(C2C3CCCCC3C3CCCCC3C2C2CCC(O)CC2)CC1 (stereo unspecified)
inactive: [6] 99 % of control | [7] 99 % of control

[NH-][n+]1c2c(nc3ccccc31)-c1cccc3cccc-2c13
inactive: dose: 50.0 mg/kg/injection, schedule: Q01DX005 (ip), vehicle: Klucel (hydroxypropylcellulose) (HPC) 103 % of control | [19] 97 % of control | dose: 100.0 mg/kg/injection, schedule: Q01DX005 (ip), vehicle: Klucel (hydroxypropylcellulose) (HPC) 112 % of control | [20] 100 % of control | dose: 200.0 mg/kg/injection, schedule: Q01DX005 (ip), vehicle: Klucel (hydroxypropylcellulose) (HPC) 105 % of control | [21] 102 % of control

COC1=CC(=O)C(OC)=C(c2c[nH]c3ccccc23)C1=O
inactive: [14] 95 % of control | [4] 87 % of control | [5] 97 % of control

O=c1oc2cc(O)ccc2c2oc3cc(O)ccc3c12
inactive: dose: 50.0 mg/kg/injection, schedule: Q04DX003 (ip), vehicle: saline with Tween-80 100 % of control | [23] 94 % of control | [24] 93 % of control | [25] 93 % of control

O=C1CSC(c2ccccc2Cl)N1c1n[nH]c(=S)s1 (stereo unspecified)
inactive: dose: 100.0 mg/kg/injection, schedule: Q04DX002 (ip), vehicle: Klucel (hydroxypropylcellulose) (HPC) 98 % of control | dose: 200.0 mg/kg/injection, schedule: Q04DX002 (ip), vehicle: Klucel (hydroxypropylcellulose) (HPC) 100 % of control | dose: 400.0 mg/kg/injection, schedule: Q04DX002 (ip), vehicle: Klucel (hydroxypropylcellulose) (HPC) 97 % of control
